Columns and labels:
M. luteus (+) = experiment: Antibacterial MIC test (CLSI); assay type: cell-based; conditions: MHB liquid medium, 37° C., 24 hours
Experimental: (§1) The MIC test was conducted in accordance CLSI guidelines. […] As a positive control, Nofloxacin and Vancomycin were used.

S. aureus enterica (−) = experiment: Antibacterial MIC test (CLSI); assay type: cell-based; conditions: MHB liquid medium, 37° C., 24 hours
Experimental: as §1

B. cereus (+) = experiment: Antibacterial MIC test (CLSI); assay type: cell-based; conditions: MHB liquid medium, 37° C., 24 hours
Experimental: as §1

B. coagulans (+) = experiment: Antibacterial MIC test (CLSI); assay type: cell-based; conditions: MHB liquid medium, 37° C., 24 hours
Experimental: as §1

E. coli (−) = experiment: Antibacterial MIC test (CLSI); assay type: cell-based; conditions: MHB liquid medium, 37° C., 24 hours
Experimental: as §1

P. acnes (+) = experiment: Antibacterial MIC test (CLSI); assay type: cell-based; conditions: MHB liquid medium, 37° C., 24 hours
Experimental: as §1

L. monocytogenes (+) = experiment: Antibacterial MIC test (CLSI); assay type: cell-based; conditions: MHB liquid medium, 37° C., 24 hours
Experimental: as §1

B. subtilis (+) = experiment: Antibacterial MIC test (CLSI); assay type: cell-based; conditions: MHB liquid medium, 37° C., 24 hours
Experimental: as §1

A. fumigatus = conditions: visual reading; expressed as a range value
C. glabrata = conditions: RPMI1640 broth, 35° C., 48 hours, visual reading; expressed as a range value
S. aureus (+) = conditions: MHB liquid medium, 37° C., 24 hours
Experimental: (§2) The antibacterial activities against Gram-positive bacteria, Gram-negative bacteria or multi-drug resistant bacteria were evaluated for the compounds of the present invention. The MIC test was conducted in accordance CLSI guidelines. E. coli(−), P. aeruginosa(−), and S. enterica(−) were used as Gram-negative bacteria, B. cereus(+), B. subtilis(+), B. coagulans(+), L. monocytogenes(+), M. luteus(+), P. acnes(+), S. epidermidis(+), and S. aureus(+) were used as Gram-positive bacteria. Methicillin-resistant Staphylococcus aureus (MRSA) was used as multi-drug resistant bacteria. The bacterial cells were incubated until the OD600 of the single colonies reached 0.1. […] Subsequently, bacterial cells were incubated at 37° C. for 24 hours, and then the MICs (μg/ ? ) were determined by visual reading and optical density detection at 600 nm (OD600). As a positive control, Nofloxacin and Vancomycin were used.

S. epidermidis (+) = conditions: MHB liquid medium, 37° C., 24 hours
Experimental: as §2

MRSA = experiment: Antibacterial MIC test (CLSI); assay type: cell-based, Methicillin-resistant Staphylococcus aureus; conditions: MHB liquid medium, 37° C., 24 hours
Experimental: as §1

C. albicans = conditions: RPMI1640 broth, 35° C., 48 hours, visual reading; expressed as a range value
C. neoformans = conditions: RPMI1640 broth, 35° C., 72 hours, visual reading; expressed as a range value
Experimental: An in vitro antifungal susceptibility test was performed in accordance with the US Clinical and Laboratory Standards Institute (CLSI) guidelines to measure the degree of antifungal activity of the compounds synthesized in the Preparation Examples against opportunistic pathogenic fungi. […] The MIC value (μg/ ? ) is expressed as a range value. Specifically, Candida species and Cryptococcus neoformans were incubated in a Sabouraud dextrose agar (SDA) (Sigma-Aldrich) solid medium for 24 and 48 hours, respectively to obtain single colonies. The obtained single colonies were suspended in 0.85% physiological saline to prepare fungal cell suspension (1 to 5×10^6 cells/ ? ). Fungal cells 2000-fold diluted in RPMI1640 broth (Sigma-Aldrich) were seeded on 96-well plates (5×10^2 to 2.5×10^3 cells/ ? , 195 ? /well). Serial two-fold dilutions (128, 64, 32, 16, 8, 4, 2, 1, and 0.5 μg/ ? ) of compounds were prepared by diluting the compounds synthesized according to the above preparation examples. Then, 5 ? from each dilution was added to the well of the 96-well plate containing fungal cell suspension to give a final suspension of 200 ? per well. […] As a positive control, amphotericin B (AMB), which is highly toxic to the human body but is known as a representative antifungal agent, was used.

Compound | MIC M. luteus (+) (M. luteus (+)) [µg/mL] | MIC S. aureus enterica (−) (S. aureus enterica (−)) [µg/mL] | MIC B. cereus (+) (B. cereus (+)) [µg/mL] | MIC B. coagulans (+) (B. coagulans (+)) [µg/mL] | MIC E. coli (−) (E. coli (−)) [µg/mL] | MIC P. acnes (+) (P. acnes (+)) [µg/mL] | MIC L. monocytogenes (+) (L. monocytogenes (+)) [µg/mL] | MIC B. subtilis (+) (B. subtilis (+)) [µg/mL] | MIC (μg/mL) A. fumigatus (A. fumigatus) | MIC (μg/mL) C. glabrata (C. glabrata) | MIC S. aureus (+) (S. aureus (+)) [µg/mL] | MIC S. epidermidis (+) (S. epidermidis (+)) [µg/mL] | MIC MRSA (MRSA) [µg/mL] | MIC (μg/mL) C. albicans (C. albicans) | MIC (μg/mL) C. neoformans (C. neoformans)
CCCC(NC)C(=O)Nc1ccc(-c2ccc(Cl)c(Cl)c2)cc1.Cl (racemic) [Compound 34, (R)/(S)-N-(3′,4′-dichloro-[1,1′-biphenyl]-4-yl)-2-(methylamino)pentanamide hydrochloride] | <4 | 32 | 8 | <4 | 8 | <4 | <4 | <4 | 8~32 μg/mL | 8~32 μg/mL | <4 | <4 | <4 | 4~16 μg/mL | 2~8 μg/mL
CCCCC(NC)C(=O)Nc1ccc(-c2ccc(Cl)c(Cl)c2)cc1.Cl (racemic) [Compound 35, (R)/(S)-N-(3′,4′-dichloro-[1,1′-biphenyl]-4-yl)-2-(methylamino)hexanamide hydrochloride] | <4 | 64 | <4 | <4 | <4 | <4 | >64 | <4 | 0.5~4 μg/mL | 0.5~4 μg/mL | 8 | <4 | <4 | 0.5~4 μg/mL | 0.5~4 μg/mL
CCCCC(N)C(=O)NCc1ccc(-c2ccc(Cl)c(Cl)c2)cc1.Cl (racemic) [Compound 46, (R)/(S)-2-amino-N-((3′,4′-dichloro-[1,1′-biphenyl]-4-yl)methyl)hexanamide hydrochloride] | 8 | 32 | 16 | 4 | 32 | 8 | 8 | 8 | 2~8 μg/mL | 2~8 μg/mL | 8 | 8 | 8 | 2~8 μg/mL | 0.5~4 μg/mL
CCCC(NC)C(=O)NCc1ccc(-c2ccc(Cl)c(Cl)c2)cc1.Cl (racemic) [Compound 51, (R)/(S)-N-((3′,4′-dichloro-[1,1′-biphenyl]-4-yl)methyl)-2-(methylamino)pentanamide hydrochloride] | 16 | >32 | 32 | 4 | >32 | 16 | 16 | 16 | 4~16 μg/mL | 4~16 μg/mL | 16 | 16 | 16 | 4~16 μg/mL | 2~8 μg/mL
CCC(N)C(=O)NCCc1ccc(-c2ccc(Cl)c(Cl)c2)cc1.Cl (racemic) [Compound 73, (R)/(S)-2-amino-N-(2-(3′,4′-dichloro-[1,1′-biphenyl]-4-yl)ethyl)butanamide hydrochloride] | 8 | 16 | 32 | <4 | 8 | 8 | 8 | 8 | 8~32 μg/mL | 8~32 μg/mL | 8 | 8 | 8 | 8~32 μg/mL | 2~8 μg/mL
CCCCC(N)C(=O)NCCc1ccc(-c2ccc(C(F)(F)F)cc2)cc1.Cl (racemic) [Compound 78, (R)/(S)-2-amino-N-(2-(4′-(trifluoromethyl)-[1,1′-biphenyl]-4-yl)ethyl)hexanamide hydrochloride] | 8 | 16 | 16 | <4 | 8 | >64 | <4 | <4 | 4~16 μg/mL | 4~16 μg/mL | 8 | 8 | 8 | 4~16 μg/mL | 2~8 μg/mL
CCC(N)C(=O)NCCc1ccc(-c2ccc(OC(F)(F)F)cc2)cc1.Cl (racemic) [Compound 79, (R)/(S)-2-amino-N-(2-(4′-(trifluoromethoxy)-[1,1′-biphenyl]-4-yl)ethyl)butanamide hydrochloride] | 16 | 32 | 64 | <4 | 16 | 16 | 16 | 16 | 8~32 μg/mL | 8~32 μg/mL | 16 | 8 | 16 | 8~32 μg/mL | 8~32 μg/mL
CCCCC(N)C(=O)NCCc1ccc(-c2ccc(OC(F)(F)F)cc2)cc1.Cl (racemic) [Compound 81, (R)/(S)-2-amino-N-(2-(4′-(trifluoromethoxy)-[1,1′-biphenyl]-4-yl)ethyl)hexanamide hydrochloride] | <4 | 16 | 16 | <4 | 8 | 8 | <4 | 4 | 2~8 μg/mL | 2~8 μg/mL | 8 | 8 | 8 | 2~8 μg/mL | 2~8 μg/mL

Reference: patent US12180139B2, “Method for preparing aminoalkanoic acid derivative containing biphenyl group” (AMTIXBIO CO., LTD., priority 2019, dated 2024)
